Patent US7348155B2, “Method for identifying compounds for treating aging processes in the coronary circulatory system” (Sanofi-Aventis Deutschland GmbH, priority 2001, dated 2008)
Where “and” joins values, the source holds several entries; their conditions need not be identical. Identical values can stand only once.

Experiments:
Format in all cases: cell-based
[1] = tested on: human cardiac fibroblasts from healthy donor hearts; test: Procollagen type I C-peptide ELISA (collagen synthesis) in fibroblasts from control (healthy donor) hearts; conditions: 10^−7 mol/l; for Collagen synthesis (procollagen type I C-peptide, Absorption, in % of the controls), MV: mean value over control (donor) hearts
Protocol: (§1) Human cardiac fibroblasts were isolated from seven explanted human hearts in the terminal stage of cardiac insufficiency due to dilated cardiomyopathy. Four cell preparations were also made from healthy donor hearts. The fibroblasts were isolated in sterile 10 cm Petri dishes and cultured as previously described. After about 12 weeks of culturing, the cells reached the second passage with a confluence of approx. 80%. At this stage, the serum was withdrawn for 48 hours and the cells were subsequently stimulated for various intervals of time (between 6 and 24 hours) with UII, Ang II, TNFalpha, TGFβ, UII+TNFa, (in each case 10^−7 mol/l), or buffer (control). The determinations were carried out in duplicate or in triplicate. After the stimulation, the cells were washed, removed from the Petri dishes with 1 ml of PBS and centrifuged down in Eppendorf tubes (100 rpm, 5 min, 4° C.). The supernatant was discarded. 100 ul of lysis buffer (Nonidet P40, 0.5%, SDS 0.5%) were added to about 50 ul of cells and the mixture was incubated on ice for a further 20 minutes. The lysate was centrifuged once again (20 minutes, 1400 rpm, 4° C.) and the supernatant was used for the subsequent experiments. Protein was determined by means of the BCA (bicinchoninic acid) assay. The homogenates were diluted down to a protein concentration of 2 ug/ul.
(§2) Procollagen type I C-peptide in the fibroblasts from all the hearts was determined on a 96-well microtiter plate using a commercially obtainable solid-phase ELISA assay (TaKaRa Biomedicals, Shuzo Co, Ltd.). The assay was carried out in accordance with the manufacturer's instructions. […] The values for the procollagen type I C-peptide were determined using a standard curve of 10-640 ng/ml. The standards were provided by the manufacturer. The absorption values for the stimulations obtained with the controls (buffer) were set at 100%. The absorption values for the stimulated cells were related to the control values obtained for the same heart. In each case, the mean values from duplicate or triplicate determinations were used for the calculations. A bilateral, unpaired t test was used for statistically evaluating the comparison of the stimulation responses in control cells and in cardiac insufficiency cells.

[2] = tested on: human cardiac fibroblasts from explanted hearts in the terminal stage of cardiac insufficiency; test: Procollagen type I C-peptide ELISA (collagen synthesis) in fibroblasts from hearts in the terminal stage of cardiac insufficiency (EFH); conditions: 10^−7 mol/l; for Collagen synthesis (procollagen type I C-peptide, Absorption, in % of the controls), MV: mean value over EFH hearts (SEM as spread)
Protocol: as §1, with “At this stage, the serum was withdrawn for 48 hours and the cells were subsequently stimulated for various intervals of time (between 6 and 24 hours) with UII, Ang II, TNFalpha, TGFβ, UII+TNFa, (in each case 10^−7 mol/l), or buffer (control).” left out
as §2

[3] = tested on: fibroblasts from human hearts; test: Induction of mRNAs (collagen 1, MMP2, TGFbeta1, CTGF) in heart fibroblasts, real-time PCR; conditions: 1 μM, 6 hours stimulation, fibroblasts from three human hearts, GAPDH mRNA as standard reference
Protocol: Fibroblasts were isolated from human hearts as described in Cell and Tissue Research 286, 145-153 (1996). 96-98% of the resulting cell culture consisted of fibroblasts.
For the purpose of implementing this procedure, heart tissue was cut into small pieces and incubated three times, at 37° C. for 20 minutes, in KHB (Krebs Henseleit buffer) containing 2 mg of collagenase/ml and 2 mg of dispase/ml. The homogenates were combined and then centrifuged. The sediments were taken up in 10 ml of KHB. The cells were added, in portions of in each case 2 to 3 ml, to uncoated plastic containers. The volume was made up to 10 ml with DMEM (Dulbecco's modification of Eagle's medium) containing […] and 10% FCS (fetal calf serum). After having been incubated at 37° C. for 1 hour, the cells were washed twice with PBS (phosphate-buffered saline) and subsequently cultured, at 37° C. and 5% CO2, for approx. 4-8 weeks until 90% confluence had been reached. There then followed two further passages of in each case 4 weeks' duration. The cells employed in the present experiments were used after the second passage and at 70% to 90% confluence (approx. 3 months after isolation).
The reagents for implementing the cell culture techniques were obtained from Gibco BRL Life Technologies. The cells were first of all kept, at 37° C., in serum-free DMEM containing 4000 mg of glucose/l, 2 mM L-glutamine, 100 μg/0.1 mg of penicillin/streptomycin/ml and 0.1% BSA (bovine serum albumin) before angiotensin II or urotensin II was added, […] RNA was then prepared from the cells after 6 hours.
The RNA was isolated by means of standard methods using guanidinium chloride.
Reverse transcriptase (10 units/ng of RNA) was used to transcribe 500 ng of the RNA from each sample into DNA. For degrading the DNA, the entire volume, containing approx. 8-10 μg of RNA, was incubated with DNase I.
The RNAs were quantified using a LightCycler and a Fast Start SYBR Green RT-PCR kit supplied by Roche Molecular Biochemicals. Corresponding kits from other companies such as Applied Biosystems, Bio-Rad or Stratagene are also suitable for the same purpose. […] The quantities were equalized using GAPDH mRNA as the control.
Fibroblasts were isolated from three human hearts and used in the […]. […] The mRNAs (collagen 1, matrix metalloproteinase 2, TGFbeta1 and CTGF) were quantified by real-time PCR using a LightCycler™. […] Real-time PCR (polymerase chain reaction in real time) makes it possible to determine specific nucleic acids quantitatively. […]

Substance	Collagen synthesis (procollagen type I C-peptide, Absorption, in % of the controls) ([1]; control heart No. 3, 6 h)	Collagen synthesis (procollagen type I C-peptide, Absorption, in % of the controls) ([1]; control heart No. 3, 12 h)	Collagen synthesis (procollagen type I C-peptide, Absorption, in % of the controls) ([1]; control heart No. 5, 6 h)	Collagen synthesis (procollagen type I C-peptide, Absorption, in % of the controls) ([1]; control heart No. 6, 6 h)	Collagen synthesis (procollagen type I C-peptide, Absorption, in % of the controls), MV [1]	Collagen synthesis (procollagen type I C-peptide, Absorption, in % of the controls) ([2]; EFH heart No. 1, 24 h)	Collagen synthesis (procollagen type I C-peptide, Absorption, in % of the controls) ([2]; EFH heart No. 4, 24 h)	Collagen synthesis (procollagen type I C-peptide, Absorption, in % of the controls) ([2]; EFH heart No. 10, 5 h)	Collagen synthesis (procollagen type I C-peptide, Absorption, in % of the controls) ([2]; EFH heart No. 11, 5 h)	Collagen synthesis (procollagen type I C-peptide, Absorption, in % of the controls), MV [2]	Collagen synthesis (procollagen type I C-peptide, Absorption, in % of the controls), MV ([2]; listed as TGF β)	Collagen synthesis (procollagen type I C-peptide, Absorption, in % of the controls) ([2]; EFH heart No. 12, 12 h)	Collagen synthesis (procollagen type I C-peptide, Absorption, in % of the controls) ([2]; EFH heart No. 13, 12 h)	Collagen synthesis (procollagen type I C-peptide, Absorption, in % of the controls) ([2]; EFH heart No. 14, 12 h)	Collagen synthesis (procollagen type I C-peptide, Absorption, in % of the controls), MV ([2]; listed as TNFalpha)	MMP 2 mRNA ([3]; control 0.43 +/− 0.2)	CTGF mRNA ([3]; control 0.45 +/− 0.27)	Col 1 mRNA ([3]; control 0.56 +/− 0.1)	TGFbeta1 mRNA ([3]; control 0.60 +/− 0.09)	Collagen synthesis (procollagen type I C-peptide, Absorption, in % of the controls), MV ([2]; listed as Ang II)
TGFβ	84 % of the controls	123 % of the controls	71 % of the controls	110 % of the controls	97 % of the controls	166 % of the controls	377 % of the controls	142 % of the controls	123 % of the controls	202 % of the controls	202+/−52 % of the controls	–	–	–	–	–	–	–	–	–
TNFa	81 % of the controls	92 % of the controls	77 % of the controls	92 % of the controls	86 % of the controls	166 % of the controls	262 % of the controls	67 % of the controls	91 % of the controls	139 % of the controls	–	107 % of the controls	126 % of the controls	190 % of the controls	139+/−26 % of the controls	–	–	–	–	–
angiotensin II (DRVYIHPF; Angiotensin-2; UniProt P01019 25-32, looked up) [AII, reference compound]	84 % of the controls	92 % of the controls	88 % of the controls	–	88 % of the controls	142 % of the controls	471 % of the controls	94 % of the controls	113 % of the controls	–	–	–	–	–	–	0.22 +/− 0.1	0.34 +/− 0.9	0.56 +/− 0.27	0.71 +/− 0.07	205+/−67 % of the controls and 205 % of the controls
